Assay results as given in patent publication US20240398757A1 (COCRYSTAL PHARMA, INC., priority 2022, published 2024).

These compounds were tested against T1, SARS2 protease (Severe acute respiratory syndrome coronavirus 2, UniProt P0DTD1) (assay: SARS-CoV-2 protease inhibition assay (SARS2 FRET protease assay)). Conditions: IC50 (μM), SARS2 protease 30 nM, peptide substrate 1.3 μM, 120 minutes at 37° C., compounds 20 μM to 0.075 nM.
T1 construct: SARS2 protease was added to a final concentration of 30 nM
Type: biochemical

Structure (SMILES)	IC50 [µM]
CCCC[C@H](NC(=O)O[C@H](c1ccccc1)C(F)(F)c1cccc(Cl)c1)C(=O)N[C@@H](C[C@@H]1CCNC1=O)C(OC(=O)CC)S(=O)(=O)O (some centres unmarked) [Compound A214]	1.86
CCCC[C@H](NC(=O)O[C@@H](c1ccccc1)C(C)(C)c1cccc(F)c1)C(=O)N[C@@H](C[C@@H]1CCNC1=O)C(=O)C(=O)NCC [Compound A215]	1.01
CCCC[C@H](NC(=O)O[C@H](c1ccccc1)C(C)(C)c1cccc(F)c1)C(=O)N[C@@H](C[C@@H]1CCNC1=O)C(=O)C(=O)NCC [Compound A216]	0.006
CCCC[C@H](NC(=O)O[C@@H](c1cccc(F)c1)C(F)(F)c1cccc(F)c1)C(=O)N[C@H](C=O)C[C@@H]1CCNC1=O [Compound A217]	0.01
CCCCC[C@H](NC(=O)O[C@H](c1ccccc1)C(F)(F)c1cccc(Cl)c1)C(=O)N[C@H](C=O)C[C@@H]1CCNC1=O [Compound A218]	0.001
O=C[C@H](C[C@@H]1CCNC1=O)NC(=O)[C@H](CCCF)NC(=O)OC(c1ccccc1)C(F)(F)c1cccc(Cl)c1 (some centres unmarked) [Compound A219]	0.16
CCNC(=O)C(=O)[C@H](C[C@@H]1CCNC1=O)NC(=O)[C@H](CC1CCCC1)NC(=O)O[C@@H](c1ccccc1)C(F)(F)c1cccc(Cl)c1 [Compound A220, (S)-2-(3-chlorophenyl)-2,2-difluoro-1-phenylethyl ((S)-3-cyclopentyl-1-(((S)-4-(ethylamino)-3,4-dioxo-1-((S)-2-oxopyrrolidin-3-yl)butan-2-yl)amino)-1-oxopropan-2-yl)carbamate]	0.183
CC(C)C[C@H](NC(=O)OC(C(C)C)C(F)(F)c1cccc(-c2ccccc2)c1)C(=O)N[C@H](C=O)C[C@@H]1CCNC1=O (stereo partly drawn) [Compound A222, 1-([1,1′-Biphenyl]-3-yl)-1,1-difluoro-3-methylbutan-2-yl ((S)-4-methyl-1-oxo-1-(((S)-1-oxo-3-((S)-2-oxopyrrolidin-3-yl)propan-2-yl)amino)pentan-2-yl)carbamate]	0.003
CC(C)C[C@H](NC(=O)O[C@@H](c1ccccc1)C(F)(F)c1cccc(F)c1)C(=O)N[C@H](C=O)C[C@@H]1CCNC1=O [Compound A223, (S)-2,2-difluoro-2-(3-fluorophenyl)-1-phenylethyl ((S)-4-methyl-1-oxo-1-(((S)-1-oxo-3-((S)-2-oxopyrrolidin-3-yl)propan-2-yl)amino)pentan-2-yl)carbamate]	0.007
CCCC[C@H](NC(=O)OC(c1ccccc1)C(F)(F)c1cccc(Cl)c1)C(=O)N[C@@H](C[C@@H]1CCNC1=O)C(=O)C(N)=O (stereo partly drawn) [Compound A224, 2-(3-chlorophenyl)-2,2-difluoro-1-phenylethyl ((S)-1-(((S)-4-amino-3,4-dioxo-1-((S)-2-oxopyrolidin-3-yl)butan-2-yl)amino)-1-oxohexan-2-yl) carbamate]	0.0001
CC(C)C[C@H](NC(=O)O[C@@H](C(C)C)C(F)(F)c1cccc(-c2ccccc2)c1)C(=O)N[C@@H](C[C@@H]1CCNC1=O)C(=O)C(=O)NC1CC1 [Compound A226, 1-([1,1′-biphenyl]-3-yl)-1,1-difluoro-3-methylbutan-2-yl ((S)-1-(((S)-4-(cyclopropylamino)-3,4-dioxo-1-((S)-2-oxopyrrolidin-3-yl)butan-2-yl)amino)-4-methyl-1-oxopentan-2-yl)carbamate]	0.062
O=C(N[C@@H](CCC(F)F)C(=O)N[C@@H](C[C@@H]1CCNC1=O)C(=O)C(=O)NC1CC1)O[C@@H](c1ccccc1)C(F)(F)c1cccc(Cl)c1 [Compound A227, (S)-2-(3-chlorophenyl)-2,2-difluoro-1-phenylethyl ((S)-1-(((S)-4-(cyclopropylamino)-3,4-dioxo-1-((S)-2-oxopyrrolidin-3-yl)butan-2-yl)amino)-5,5-difluoro-1-oxopentan-2-yl)carbamate]	0.412
CCC(=O)OC([C@H](C[C@@H]1CCNC1=O)NC(=O)[C@H](CC1CCCCC1)NC(=O)O[C@@H](c1ccccc1)C(F)(F)c1cccc(Cl)c1)S(=O)(=O)O (stereo partly drawn) [Compound A229, sodium (2S,6S,9S)-1-(3-chlorophenyl)-6-(cyclohexylmethyl)-1,1-difluoro-4,7,12-trioxo-9-(((S)-2-oxopyrrolidin-3-yl)methyl)-2-phenyl-3,11-dioxa-5,8-diazatetradecane-10-sulfonate]	≥ 20
O=C(N[C@@H](CC(F)F)C(=O)N[C@@H](C[C@@H]1CCNC1=O)C(=O)C(=O)NC1CC1)OC(c1ccccc1)C(F)(F)c1cccc(Cl)c1 (stereo partly drawn) [Compound A230, 2-(3-chlorophenyl)-2,2-difluoro-1-phenylethyl ((S)-1-(((S)-4-(cyclopropylamino)-3,4-dioxo-1-((S)-2-oxopyrrolidin-3-yl)butan-2-yl)amino)-4,4-difluoro-1-oxobutan-2-yl)carbamate]	0.007
CCCC[C@H](NC(=O)OC(c1ccccc1)C(F)(F)c1cccc(Cl)c1)C(=O)N[C@@H](C[C@@H]1CCNC1=O)C(=O)C(=O)NCCO (stereo partly drawn) [Compound A231, 2-(3-chlorophenyl)-2,2-difluoro-1-phenylethyl ((S)-1-(((S)-4-((2-hydroxyethyl)amino)-3,4-dioxo-1-((S)-2-oxopyrrolidin-3-yl)butan-2-yl)amino)-1-oxohexan-2-yl)carbamate]	0.089
O=C[C@H](C[C@@H]1CCNC1=O)NC(=O)[C@H](CC(F)F)NC(=O)OC(c1ccccc1)C(F)(F)c1cccc(Cl)c1 (stereo partly drawn) [Compound A232, 2-(3-chlorophenyl)-2,2-difluoro-1-phenylethyl ((S)-4,4-difluoro-1-oxo-1-(((S)-1-oxo-3-((S)-2-oxopyrrolidin-3-yl)propan-2-yl)amino)butan-2-yl)carbamate]	0.022
O=C(N[C@@H](CC1CCCCC1)C(=O)N[C@@H](C[C@@H]1CCNC1=O)C(O)S(=O)(=O)O)O[C@H](c1ccccc1)C(F)(F)c1cccc(F)c1 (stereo partly drawn) [Compound A233, sodium (2S)-2-((S)-3-cyclohexyl-2-((((R)-2,2-difluoro-2-(3-fluorophenyl)-1-phenylethoxy)carbonyl)amino)propanamido)-1-hydroxy-3-((S)-2-oxopyrrolidin-3-yl)propane-1-sulfonate]	0.025
CCC(C)C[C@H](NC(=O)OC(c1ccccc1)C(F)(F)c1cccc(Cl)c1)C(=O)N[C@H](C=O)C[C@@H]1CCNC1=O (some centres unmarked) [Compound A234]	0.001
O=C(N[C@@H](CC1CCCCC1)C(=O)N[C@@H](C[C@@H]1CCNC1=O)C(=O)C(=O)NC1CC1)O[C@@H](c1ccccc1)C(F)(F)c1cccc(F)c1 [Compound A236]	0.817
O=C(N[C@@H](CC1CCCCC1)C(=O)N[C@@H](C[C@@H]1CCNC1=O)C(=O)C(=O)NC1CC1)O[C@H](c1ccccc1)C(F)(F)c1cccc(F)c1 [Compound A237]	0.003
CCCC[C@H](NC(=O)OC(c1ccccc1)C(F)(F)c1cccc(Cl)c1)C(=O)N[C@@H](C[C@@H]1CCNC1=O)C(=O)c1nc2ccccc2s1 (stereo partly drawn) [Compound A238, 2-(3-chlorophenyl)-2,2-difluoro-1-phenylethyl ((S)-1-(((S)-1-(benzo[d]thiazol-2-yl)-1-oxo-3-((S)-2-oxopyrrolidin-3-yl)propan-2-yl)amino)-1-oxohexan-2-yl)carbamate]	1.16
CCNC(=O)C(=O)[C@H](C[C@@H]1CCNC1=O)NC(=O)[C@H](Cc1ccccc1)NC(=O)OC(c1ccccc1)C(F)(F)c1cccc(Cl)c1 (stereo partly drawn) [Compound A240, 2-(3-chlorophenyl)-2,2-difluoro-1-phenylethyl ((S)-1-(((S)-4-(ethylamino)-3,4-dioxo-1-((S)-2-oxopyrrolidin-3-yl)butan-2-yl)amino)-1-oxo-3-phenylpropan-2-yl)carbamate]	0.638
O=C(N[C@@H](Cc1ccccc1)C(=O)N[C@@H](C[C@@H]1CCNC1=O)C(=O)C(=O)NC1CC1)OC(c1ccccc1)C(F)(F)c1cccc(Cl)c1 (stereo partly drawn) [Compound A241, 2-(3-chlorophenyl)-2,2-difluoro-1-phenylethyl ((S)-1-(((S)-4-(cyclopropylamino)-3,4-dioxo-1-((S)-2-oxopyrrolidin-3-yl)butan-2-yl)amino)-1-oxo-3-phenylpropan-2-yl)carbamate]	0.614
CCCC(=O)OC([C@H](C[C@@H]1CCNC1=O)NC(=O)[C@H](CC1CCCCC1)NC(=O)O[C@@H](c1ccccc1)C(F)(F)c1cccc(Cl)c1)S(=O)(=O)O (stereo partly drawn) [Compound A242, sodium (2S,6S,9S)-1-(3-chlorophenyl)-6-(cyclohexylmethyl)-1,1-difluoro-4,7,12-trioxo-9-(((S)-2-oxopyrrolidin-3-yl)methyl)-2-phenyl-3,11-dioxa-5,8-diazapentadecane-10-sulfonate]	1.2
CCCC[C@H](NC(=O)O[C@H](c1ccccc1)C(F)(F)c1cccc(Cl)c1)C(=O)N[C@@H](C[C@@H]1CCNC1=O)C(=O)C(N)=O [Compound A248, (R)-2-(3-chlorophenyl)-2,2-difluoro-1-phenylethyl ((S)-1-(((S)-4-amino-3,4-dioxo-1-((S)-2-oxopyrrolidin-3-yl)butan-2-yl)amino)-1-oxohexan-2-yl)carbamate]	0.0004
CCCC[C@H](NC(=O)OC(c1ccccc1)C(F)(F)c1cccc(Cl)c1)C(=O)N[C@@H](C[C@@H]1CCNC1=O)C(=O)C(=O)O (stereo partly drawn) [Compound A250, (3S)-3-((2S)-2-(((2-(3-chlorophenyl)-2,2-difluoro-1-phenylethoxy)carbonyl)amino)hexanamido)-2-oxo-4-((S)-2-oxopyrrolidin-3-yl)butanoic acid]	0.036
CCCC[C@H](NC(=O)OC(c1cccnc1)C(F)(F)c1cccc(Cl)c1)C(=O)N[C@@H](C[C@@H]1CCNC1=O)C(=O)C(=O)NC1CC1 (some centres unmarked) [Compound A252]	0.002
O=C[C@H](C[C@@H]1CCNC1=O)NC(=O)[C@H](Cc1ccccc1)NC(=O)O[C@@H](c1ccccc1)C(F)(F)c1cccc(Cl)c1 [Compound A253, (S)-2-(3-chlorophenyl)-2,2-difluoro-1-phenylethyl ((S)-1-oxo-1-(((S)-1-oxo-3-((S)-2-oxopyrrolidin-3-yl)propan-2-yl)amino)-3-phenylpropan-2-yl)carbamate]	0.002
O=C[C@H](C[C@@H]1CCNC1=O)NC(=O)[C@H](Cc1ccccc1)NC(=O)OC(C1CCCCC1)C(F)(F)c1cccc(Cl)c1 (some centres unmarked) [Compound A254]	0.002
